Earlier results as cited in US20050220825A1, “Molecular dispersions of drospirenone” (priority 2004, published 2005).

Tests used:
[1] = drospirenone in micronised form; background statement
[2] = within 30 minutes, hydrochloric acid solution pH about 1.0

drospirenone dissolved at 30 minutes after start of dissolution testing [1]: at least 70%
drospirenone degraded into its therapeutically inactive isomer [2]: ~50%
SMILES: C[C@]12CCC(=O)C=C1[C@@H]1C[C@@H]1[C@H]1[C@@H]3[C@@H]4C[C@@H]4[C@@]4(CCC(=O)O4)[C@@]3(C)CC[C@@H]12 [drospirenone]
